Patent US20090274738A1, “IMPLANTABLE DEVICES FOR PROMOTING REENDOTHELIALIZATION AND METHODS OF USE THEREOF” (priority 2008, published 2009)

Key:
[1] = type: in vivo
Protocol: Tissue samples and stents were analyzed for each animal for estrogen content. The right coronary artery (RCA) and the left anterior descending artery (LAD) were opened longitudinally and cut into 6 pieces; 2 in the proximal region, 2 in the medial region and 2 in the distal region of the stented segment. One piece in each region was analyzed and the other one was kept as a backup. To evaluate the migration of E2 through the arterial wall, the left circumflex artery (LCX) was dissected to separate the adventitia from the rest of the artery and the two fractions were analyzed individually. […] After centrifugation, sera were collected for extraction and analysis by GC/MS.
Hormones Deuterium-labeled estradiol 2,4,16,16,17-D5 (17β-D5) (CDN Isotopes, Pointe Claire, Canada) and micronized estradiol (USP, Xenex labs, Coquitlam, Canada) were used respectively as internal and external controls.
Extraction of steroids—17β-estradiol extraction in pig serum. Blood samples of 8.5 mL were collected at specific time from each animal in the coronary sinus using an 8 French guiding catheter at baseline, 10 min and 1 hr after stent implantation and at sacrifice. Samples were centrifuged at 1800 rpm at 4° C. for 10 minutes. […]
Estrogen quantification data Estrogen quantification was performed by Gas Chromatography/Mass Spectroscopy (GC/MS) as described above. Diffusion of E2 from the stent was determined in tissue in direct contact with the stent (coronary tissues proximal, medial, distal (see FIG. 9)), in close proximity (reference proximal, reference distal, adventitia, peri-coronary muscle, peri-coronary white fat (see FIG. 10)) or at distal sites potentially exposed to E2 released from the stent into the blood (carotid artery, femoral artery, apex, auricle, lung, kidney and liver). To obtain the total amount of E2 in an artery, E2 content measured by GC/MS in the proximal, medial and distal portions of each stented coronary segment were added together. […] The E2 content of the total adventitia dissected from each RCA was also determined.

[2] = Tissue uptake of estradiol administered locally with a catheter; type: in vivo; settings: 10 mg administered with a catheter over a few seconds
Protocol: Stents and hormone used for the procedures The polymer poly (ester-amide) (PEA)/estradiol (E2) stents used in Examples presented herein were prepared by MicroPort (MicroPort Medical Co, Ltd. Shanghai). Stainless steel bare metal stents were of 18 mm and 23 mm length and were spray coated by MicroPort with 300 μg or 500 μg of E2 matrixed with MediVas™ poly (ester-amide) (MVPEA.I.(Ac)) tempo polymer. […] The sizes of Cypher™ stents were; 3×18 mm, 3.5×18 mm, 3×23 mm, 3.5×23 mm (Johnson & Johnson). The sizes of Taxus™ stents were 2.25×12 mm, 3×16 mm, 3.5×16 mm, 3×24 mm, 3.5×24 mm (Boston Scientific). The estradiol (USP) used to load the polymer poly (ester-amide) (PEA)/E2 stents was bought from Xenex labs (Coquitlam, Canada) and send to Microport. The estradiol used for local delivery by catheter in the objective 2 was the water soluble form coupled with hydroxypropyl-heta-cyclodextrin (HPCD).

[3] = test system: endothelial progenitor cell; settings: cited from earlier work
[4] = test system: foetal bovine aortic endothelial cell; settings: cited from earlier work

C[C@]12CC[C@@H]3c4ccc(O)cc4CC[C@H]3[C@@H]1CC[C@@H]2O [estradiol, 17-β-Estradiol]
penetration of estradiol through the arterial wall ([1]; detected in adventitia, peri-coronary muscle and white fat tissues): deep penetration
mean concentration of estradiol in coronary tissue ([1]; first 48 hours, 500 μg E2 stent): 12.0 μg/g of tissue
E2 concentration in tissues at distal location from stent ([1]; in vivo): at baseline level
amount in the tissue overall [2]: 51 µg
fraction of dose up-taken by the tissue [2]: 0.51%
concentration with strong negative effect on endothelial progenitor cell growth [3]: ≥ 10 µM
concentration at which enhancement of foetal bovine aortic endothelial cell growth was lost [4]: ≥ 100 nM
